Tests used:
Liver GK = target: T1, Liver GK (Homo sapiens, UniProt P35557); assay: Glucokinase enzyme assay, liver GK; assay type: biochemical; details: for EC50: concentration that produces 50% activation above the vehicle control; for EC100%: concentration that produces 100% activation above the vehicle control; for activation at 50 µM: percentage increase in GK activity above vehicle control, compound 50 μM, 12 mM glucose
T1 construct: (His)6; made in house; host or cells: Escherichia coli
T1 sequence (P35557 1-466 isoform P35557-2): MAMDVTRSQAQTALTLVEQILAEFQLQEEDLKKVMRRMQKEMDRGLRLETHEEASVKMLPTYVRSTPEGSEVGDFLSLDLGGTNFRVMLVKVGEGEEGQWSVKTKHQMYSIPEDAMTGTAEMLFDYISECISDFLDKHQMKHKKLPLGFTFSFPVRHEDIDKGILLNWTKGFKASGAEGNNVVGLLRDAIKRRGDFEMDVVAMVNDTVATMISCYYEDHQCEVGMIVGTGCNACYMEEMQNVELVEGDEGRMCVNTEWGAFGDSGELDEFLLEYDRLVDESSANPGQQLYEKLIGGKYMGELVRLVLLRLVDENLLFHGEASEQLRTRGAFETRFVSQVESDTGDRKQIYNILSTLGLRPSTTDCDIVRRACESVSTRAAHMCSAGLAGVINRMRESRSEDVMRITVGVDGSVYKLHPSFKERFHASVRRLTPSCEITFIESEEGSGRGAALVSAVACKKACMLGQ
Description: (§1) An enzymatic Glucokinase (GK) assay using purified recombinant human liver/pancreas enzyme was used to evaluate the effects of potential small molecule modulators.
(§2) In this assay, GK catalyzes glucose phosphorylation in the presence of ATP. The product of this reaction, glucose-6-phosphate, was then oxidized by an excess of glucose-6-phosphate dehydrogenase to produce gluconate-6-phosphate with concomitant reduction of nicotinamide adenine dinucleotide (NAD). […] Human GK (Liver/Pancreas) was expressed in Escherichia coli as a (His) 6-tagged fusion protein and was purified by metal chelate affinity chromatography. The assay was performed in a final incubation volume of 80 μl in a 96-well clear low UV absorption plates. The incubation mixture consisted of 25 mM HEPES, 2 mM MgSO4, 1 mM dithiothreotol (DTT), 1 mg/mL bovine serum albumin (BSA), 1 mM ATP, 1 mM NAD, and 12 mM glucose, 10 units per mL glucose-6-phosphate dehydrogenase, and +/−300 ng per mL GK. For determination of the affinity (Km) and Vmax, different concentrations of glucose ranging from 0.5 mM to 40 mM were used in the assay; see Grimsby, J., Sarabu, R.; Grippo, J. F.; et. al. Science 2003, 301, 370-373. Production of reduced NAD (Nicotinamide Adenine Dinucleotide) was measured as changes in absorption at 340 nm in 96-well plate reader (Envision model #2101 Multilabel Plate reader). % Activation @ 50 μM was calculated as the percentage increase in GK activity above the vehicle control with the effective concentration of the compound being 50 μM. EC50% (μM) was calculated as the effective concentration of the compound that produces 50% activation above the vehicle control, and EC100% (μM) was calculated as the effective concentration of the compound that produces 100% activation above the vehicle control.

Pancreas GK = target: T2, Pancreas GK (Homo sapiens, UniProt P35557); assay: Glucokinase enzyme assay, pancreas GK; assay type: biochemical; details: for EC50: concentration that produces 50% activation above the vehicle control; for EC100%: concentration that produces 100% activation above the vehicle control
T2 construct: (His)6; made in house; host or cells: Escherichia coli
T2 sequence (P35557 1-465): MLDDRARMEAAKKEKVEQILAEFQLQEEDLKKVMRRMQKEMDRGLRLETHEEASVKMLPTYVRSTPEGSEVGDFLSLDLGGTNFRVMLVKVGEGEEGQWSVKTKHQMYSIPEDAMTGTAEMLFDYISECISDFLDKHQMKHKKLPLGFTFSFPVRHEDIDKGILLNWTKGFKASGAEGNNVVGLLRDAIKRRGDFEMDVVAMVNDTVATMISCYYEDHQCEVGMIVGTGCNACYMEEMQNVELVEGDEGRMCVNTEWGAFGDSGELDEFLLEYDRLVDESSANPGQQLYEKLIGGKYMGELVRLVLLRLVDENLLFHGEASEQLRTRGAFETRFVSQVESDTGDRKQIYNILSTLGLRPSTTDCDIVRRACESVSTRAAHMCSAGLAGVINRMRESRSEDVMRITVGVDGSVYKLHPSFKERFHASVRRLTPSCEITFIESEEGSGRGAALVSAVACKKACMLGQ
Description: as §1, §2

| EC50 (Liver GK) [µM] | EC100% (Liver GK) [µM] | EC50 (Pancreas GK) [µM] | EC100% (Pancreas GK) [µM] | activation at 50 µM (Liver GK) [%] | activation at 50 µM (Pancreas GK; percentage increase in GK activity above vehicle control, compound 50 μM, 12 mM glucose) [%] | Compound |
| --- | --- | --- | --- | --- | --- | --- |
| 6.23 | 13.78 | 8.13 | 20.28 |  |  | COc1ccc(CN2C(=O)C(C)=C(C)C2SCC(=O)Nc2cccc(C)n2)cc1 (centres unmarked) [Compound 23, 2-[1-(4-Methoxy-benzyl)-3,4-dimethyl-5-oxo-2,5-dihydro-1H-pyrrol-2-ylsulfanyl]-N-(6-methyl-pyridin-2-yl)-acetamide] |
|  |  |  |  | 37 | 24 | COc1ccc(CN2C(=O)C(C)=C(C)[C@H]2S[C@H](C)C(=O)Nc2ccccn2)cc1 (stereo in doubt) [Compound 32, 2-[1-(4-Methoxy-benzyl)-3,4-dimethyl-5-oxo-2,5-dihydro-1H-pyrrol-2-ylsulfanyl]-N-pyridin-2-yl-propionamide] |
| 14.1 | >50 | 20 | >50 | 90 |  | COC(=O)c1ccc(NC(=O)COC2C(C)=C(C)C(=O)N2Cc2ccc(OC)cc2)nc1 (centres unmarked) [Compound 27, 6-{2-[1-(4-Methoxy-benzyl)-3,4-dimethyl-5-oxo-2,5-dihydro-1H-pyrrol-2-yloxy]-acetylamino}-nicotinic acid methyl ester] |

— patent US8680122B2, “Substituted pyrrolones as allosteric modulators of glucokinase” (Janssen Pharmacetica N.V., priority 2005, dated 2014)
